{
  "source": "patent US6914045B2",
  "about": "“Glycopeptide antibiotics” (Wyeth Holdings Corporation, priority 2001, dated 2005)",
  "assay_in_all_cases": "in vitro antibacterial evaluation, MIC by broth dilution",
  "type_in_all_cases": "cell-based",
  "key": {"Enterococcus sp.": {"tested_on": "Enterococcus sp.", "details": "broth dilution, 18 hours at 35° C.", "procedure,_shortened": "(§1)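 Read-out: the lowest concentration at which the test strain fails to grow. Serial dilutions (64-0.06 μg/mL) in Muller-Hinton II […], 5×10^5 CFU/mL inoculum, NCCLS M7-A2 procedure.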"}, "Staphylococcus sp.": {"tested_on": "Staphylococcus sp.", "details": "broth dilution, 18 hours at 35° C.", "procedure,_shortened": "as §1"}, "Streptococcus sp.": {"tested_on": "Streptococcus sp.", "details": "broth dilution, 18 hours at 35° C.", "procedure,_shortened": "as §1"}, "Escherichia coli": {"tested_on": "Escherichia coli", "details": "18 hours at 35° C."}},
  "data": [
    {"smiles": "COc1ccc2cc(COC3C(OC4C(CO)OC(Oc5ccc(CC6NC(=O)C(C(C)c7ccccc7)NC(=O)CNC(=O)C(CO)NC(=O)C(C(O)C7CNC(=N)N7C7OC(CO)C(O)C(O)C7O)NC(=O)C(C(O)C7CNC(=N)N7)NC6=O)cc5)C(O)C4O)OC(CO)C(O)C3O)ccc2c1", "note": "(stereo not drawn) [Example 230c, Cyclo[glycyl-β-methylphenylalanyl-O-[4-O-[2-O-[(6-methoxy-2-naphthyl)methyl]hexopyranosyl]hexopyranosyl]tyrosyl-3-(2-iminoimidazolidin-4-yl)seryl-3-(3-hexopyranosyl-2-iminoimidazolidin-4-yl)serylseryl]]", "values": [
      {"measurement": "MIC Enterococcus avium (GC 4558)", "setting": "Enterococcus sp.", "value": 128, "unit": "µg/mL"},
      {"measurement": "MIC Enterococcus faecalis (ATCC 29212)", "setting": "Enterococcus sp.", "value": ">128", "unit": "µg/mL"},
      {"measurement": "MIC Enterococcus faecalis (GC 2242)", "setting": "Enterococcus sp.", "value": ">128", "unit": "µg/mL"},
      {"measurement": "MIC Enterococcus faecalis (GC 2691)", "setting": "Enterococcus sp.", "value": ">128", "unit": "µg/mL"},
      {"measurement": "MIC Enterococcus faecalis (GC 3059)", "setting": "Enterococcus sp.", "value": ">128", "unit": "µg/mL"},
      {"measurement": "MIC Enterococcus faecalis (GC 4552)", "setting": "Enterococcus sp.", "value": ">128", "unit": "µg/mL"},
      {"measurement": "MIC Enterococcus faecalis (GC 4553)", "setting": "Enterococcus sp.", "value": 128, "unit": "µg/mL"},
      {"measurement": "MIC Enterococcus faecalis (GC 4554)", "setting": "Enterococcus sp.", "value": ">128", "unit": "µg/mL"},
      {"measurement": "MIC Enterococcus faecalis (GC 6189)", "setting": "Enterococcus sp.", "value": ">128", "unit": "µg/mL"},
      {"measurement": "MIC Enterococcus faecium (GC 2243)", "setting": "Enterococcus sp.", "value": 128, "unit": "µg/mL"},
      {"measurement": "MIC Enterococcus faecium (GC 4556)", "setting": "Enterococcus sp.", "value": ">128", "unit": "µg/mL"},
      {"measurement": "MIC Enterococcus faecium (GC 4557)", "setting": "Enterococcus sp.", "value": 32, "unit": "µg/mL"},
      {"measurement": "MIC Enterococcus faecalis (ATCC 29212)", "setting": "Enterococcus sp.; inoculum 5×10^5 CFU/mL, strain ATCC 29212", "value": ">128", "unit": "µg/mL"},
      {"measurement": "MIC Enterococcus faecalis (GC 2242)", "setting": "Enterococcus sp.; inoculum 5×10^5 CFU/mL, strain GC 2242", "value": ">128", "unit": "µg/mL"},
      {"measurement": "MIC Enterococcus faecium (GC 2243)", "setting": "Enterococcus sp.; inoculum 5×10^5 CFU/mL, strain GC 2243", "value": 128, "unit": "µg/mL"},
      {"measurement": "MIC Enterococcus faecalis (GC 2691)", "setting": "Enterococcus sp.; inoculum 5×10^5 CFU/mL, strain GC 2691", "value": ">128", "unit": "µg/mL"},
      {"measurement": "MIC Enterococcus faecalis (GC 3059)", "setting": "Enterococcus sp.; inoculum 5×10^5 CFU/mL, strain GC 3059", "value": ">128", "unit": "µg/mL"},
      {"measurement": "MIC Enterococcus faecalis (GC 4552)", "setting": "Enterococcus sp.; inoculum 5×10^5 CFU/mL, strain GC 4552", "value": ">128", "unit": "µg/mL"},
      {"measurement": "MIC Enterococcus faecalis (GC 4553)", "setting": "Enterococcus sp.; inoculum 5×10^5 CFU/mL, strain GC 4553", "value": 128, "unit": "µg/mL"},
      {"measurement": "MIC Enterococcus faecalis (GC 4554)", "setting": "Enterococcus sp.; inoculum 5×10^5 CFU/mL, strain GC 4554", "value": ">128", "unit": "µg/mL"},
      {"measurement": "MIC Enterococcus faecium (GC 4556)", "setting": "Enterococcus sp.; inoculum 5×10^5 CFU/mL, strain GC 4556", "value": ">128", "unit": "µg/mL"},
      {"measurement": "MIC Enterococcus faecium (GC 4557)", "setting": "Enterococcus sp.; inoculum 5×10^5 CFU/mL, strain GC 4557", "value": 32, "unit": "µg/mL"},
      {"measurement": "MIC Enterococcus avium (GC 4558)", "setting": "Enterococcus sp.; inoculum 5×10^5 CFU/mL, strain GC 4558", "value": 128, "unit": "µg/mL"},
      {"measurement": "MIC Enterococcus faecalis (GC 6189)", "setting": "Enterococcus sp.; inoculum 5×10^5 CFU/mL, strain GC 6189", "value": ">128", "unit": "µg/mL"},
      {"measurement": "MIC Coagulase Negative Staphylococcus (GC 4547)", "setting": "Staphylococcus sp.", "value": 64, "unit": "µg/mL"},
      {"measurement": "MIC Coagulase Negative Staphylococcus (GC 4548)", "setting": "Staphylococcus sp.", "value": 64, "unit": "µg/mL"},
      {"measurement": "MIC Coagulase Negative Staphylococcus (GC 4549)", "setting": "Staphylococcus sp.", "value": 64, "unit": "µg/mL"},
      {"measurement": "MIC Coagulase Negative Staphylococcus (GC 4551)", "setting": "Staphylococcus sp.", "value": 64, "unit": "µg/mL"},
      {"measurement": "MIC Coagulase Negative Staphylococcus (GC 6257)", "setting": "Staphylococcus sp.", "value": 32, "unit": "µg/mL"},
      {"measurement": "MIC Staphylococcus aureus (ATCC 29213)", "setting": "Staphylococcus sp.", "value": 128, "unit": "µg/mL"},
      {"measurement": "MIC Staphylococcus aureus (GC 1131)", "setting": "Staphylococcus sp.", "value": 128, "unit": "µg/mL"},
      {"measurement": "MIC Staphylococcus aureus (GC 3051)", "setting": "Staphylococcus sp.", "value": 128, "unit": "µg/mL"},
      {"measurement": "MIC Staphylococcus aureus (GC 3053)", "setting": "Staphylococcus sp.", "value": 128, "unit": "µg/mL"},
      {"measurement": "MIC Staphylococcus aureus (GC 4541)", "setting": "Staphylococcus sp.", "value": 64, "unit": "µg/mL"},
      {"measurement": "MIC Staphylococcus aureus (GC 4542)", "setting": "Staphylococcus sp.", "value": ">128", "unit": "µg/mL"},
      {"measurement": "MIC Staphylococcus aureus (GC 4544)", "setting": "Staphylococcus sp.", "value": 128, "unit": "µg/mL"},
      {"measurement": "MIC Staphylococcus aureus (GC 4545)", "setting": "Staphylococcus sp.", "value": 128, "unit": "µg/mL"},
      {"measurement": "MIC Staphylococcus aureus-SMITH (GC 4543)", "setting": "Staphylococcus sp.", "value": 64, "unit": "µg/mL"},
      {"measurement": "MIC Staphylococcus haemolyticus (GC 4546)", "setting": "Staphylococcus sp.", "value": 64, "unit": "µg/mL"},
      {"measurement": "MIC Staphylococcus aureus (ATCC 29213)", "setting": "Staphylococcus sp.; strain ATCC 29213", "value": 128, "unit": "µg/mL"},
      {"measurement": "MIC Staphylococcus aureus (GC 1131)", "setting": "Staphylococcus sp.; strain GC 1131", "value": 128, "unit": "µg/mL"},
      {"measurement": "MIC Staphylococcus aureus (GC 3051)", "setting": "Staphylococcus sp.; strain GC 3051", "value": 128, "unit": "µg/mL"},
      {"measurement": "MIC Staphylococcus aureus (GC 3053)", "setting": "Staphylococcus sp.; strain GC 3053", "value": 128, "unit": "µg/mL"},
      {"measurement": "MIC Staphylococcus aureus (GC 4541)", "setting": "Staphylococcus sp.; strain GC 4541", "value": 64, "unit": "µg/mL"},
      {"measurement": "MIC Staphylococcus aureus (GC 4542)", "setting": "Staphylococcus sp.; strain GC 4542", "value": ">128", "unit": "µg/mL"},
      {"measurement": "MIC Staphylococcus aureus-SMITH (GC 4543)", "setting": "Staphylococcus sp.; strain GC 4543", "value": 64, "unit": "µg/mL"},
      {"measurement": "MIC Staphylococcus aureus (GC 4544)", "setting": "Staphylococcus sp.; strain GC 4544", "value": 128, "unit": "µg/mL"},
      {"measurement": "MIC Staphylococcus aureus (GC 4545)", "setting": "Staphylococcus sp.; strain GC 4545", "value": 128, "unit": "µg/mL"},
      {"measurement": "MIC Staphylococcus haemolyticus (GC 4546)", "setting": "Staphylococcus sp.; strain GC 4546", "value": 64, "unit": "µg/mL"},
      {"measurement": "MIC Coagulase Negative Staphylococcus (GC 4547)", "setting": "Staphylococcus sp.; strain GC 4547", "value": 64, "unit": "µg/mL"},
      {"measurement": "MIC Coagulase Negative Staphylococcus (GC 4548)", "setting": "Staphylococcus sp.; strain GC 4548", "value": 64, "unit": "µg/mL"},
      {"measurement": "MIC Coagulase Negative Staphylococcus (GC 4549)", "setting": "Staphylococcus sp.; strain GC 4549", "value": 64, "unit": "µg/mL"},
      {"measurement": "MIC Coagulase Negative Staphylococcus (GC 4551)", "setting": "Staphylococcus sp.; strain GC 4551", "value": 64, "unit": "µg/mL"},
      {"measurement": "MIC Coagulase Negative Staphylococcus (GC 6257)", "setting": "Staphylococcus sp.; strain GC 6257", "value": 32, "unit": "µg/mL"},
      {"measurement": "MIC Streptococcus agalactiae (GC 4564)", "setting": "Streptococcus sp.", "value": 32, "unit": "µg/mL"},
      {"measurement": "MIC Streptococcus pneumoniae (ATCC 6301)", "setting": "Streptococcus sp.", "value": 32, "unit": "µg/mL"},
      {"measurement": "MIC Streptococcus pneumoniae (GC 1894)", "setting": "Streptococcus sp.", "value": 16, "unit": "µg/mL"},
      {"measurement": "MIC Streptococcus pneumoniae (GC 4565)", "setting": "Streptococcus sp.", "value": 32, "unit": "µg/mL"},
      {"measurement": "MIC Streptococcus pyogenes (GC 4563)", "setting": "Streptococcus sp.", "value": 64, "unit": "µg/mL"},
      {"measurement": "MIC Streptococcus pneumoniae (ATCC 6301)", "setting": "Streptococcus sp.; inoculum 5×10^5 CFU/mL, strain ATCC 6301", "value": 32, "unit": "µg/mL"},
      {"measurement": "MIC Streptococcus pneumoniae (GC 1894)", "setting": "Streptococcus sp.; inoculum 5×10^5 CFU/mL, strain GC 1894", "value": 16, "unit": "µg/mL"},
      {"measurement": "MIC Streptococcus pyogenes (GC 4563)", "setting": "Streptococcus sp.; inoculum 5×10^5 CFU/mL, strain GC 4563", "value": 64, "unit": "µg/mL"},
      {"measurement": "MIC Streptococcus agalactiae (GC 4564)", "setting": "Streptococcus sp.; inoculum 5×10^5 CFU/mL, strain GC 4564", "value": 32, "unit": "µg/mL"},
      {"measurement": "MIC Streptococcus pneumoniae (GC 4565)", "setting": "Streptococcus sp.; inoculum 5×10^5 CFU/mL, strain GC 4565", "value": 32, "unit": "µg/mL"},
      {"measurement": "MIC Escherichia coli (ATCC 25922)", "setting": "Escherichia coli", "value": ">128", "unit": "µg/mL"},
      {"measurement": "MIC Escherichia coli (GC 4559)", "setting": "Escherichia coli", "value": ">128", "unit": "µg/mL"},
      {"measurement": "MIC Escherichia coli (GC 4560)", "setting": "Escherichia coli", "value": 32, "unit": "µg/mL"}
    ]}
  ]
}
